# Measured values as given in patent US20090311217A1, “3-SUBSTITUTED-1H-INDOLE COMPOUNDS, THEIR USE AS MTOR KINASE AND PI3 KINASE INHIBITORS, AND THEIR SYNTHESES” (priority 2008, published 2009).
# How the values were obtained:
# [1] = target: PI3K-alpha (Homo sapiens, UniProt P42336); test: PI3K-alpha fluorescence polarization assay; type: biochemical; details: read-out: PI3Kα Avg. IC50
# [2] = target: PI3K-gamma (Homo sapiens, UniProt P48736); test: PI3K-gamma fluorescence polarization assay; type: biochemical; details: PI3Kγ Avg. IC50
# How it was run: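 Reactions used 5 ng enzyme with 2.5 μM diC8-PI(4,5)P2 and 25 μM ATP in 5 mM HEPES pH 7, 2.5 mM MgCl2, run 1 h at 25° C. After an EDTA quench (10 mM), 100 nM GST-GRP1 PH domain and 5 nM BODIPY-TMR-IP4 were added and fluorescence polarization was read.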
# Chain of PI3K-alpha (P42336 whole entry, species assumed): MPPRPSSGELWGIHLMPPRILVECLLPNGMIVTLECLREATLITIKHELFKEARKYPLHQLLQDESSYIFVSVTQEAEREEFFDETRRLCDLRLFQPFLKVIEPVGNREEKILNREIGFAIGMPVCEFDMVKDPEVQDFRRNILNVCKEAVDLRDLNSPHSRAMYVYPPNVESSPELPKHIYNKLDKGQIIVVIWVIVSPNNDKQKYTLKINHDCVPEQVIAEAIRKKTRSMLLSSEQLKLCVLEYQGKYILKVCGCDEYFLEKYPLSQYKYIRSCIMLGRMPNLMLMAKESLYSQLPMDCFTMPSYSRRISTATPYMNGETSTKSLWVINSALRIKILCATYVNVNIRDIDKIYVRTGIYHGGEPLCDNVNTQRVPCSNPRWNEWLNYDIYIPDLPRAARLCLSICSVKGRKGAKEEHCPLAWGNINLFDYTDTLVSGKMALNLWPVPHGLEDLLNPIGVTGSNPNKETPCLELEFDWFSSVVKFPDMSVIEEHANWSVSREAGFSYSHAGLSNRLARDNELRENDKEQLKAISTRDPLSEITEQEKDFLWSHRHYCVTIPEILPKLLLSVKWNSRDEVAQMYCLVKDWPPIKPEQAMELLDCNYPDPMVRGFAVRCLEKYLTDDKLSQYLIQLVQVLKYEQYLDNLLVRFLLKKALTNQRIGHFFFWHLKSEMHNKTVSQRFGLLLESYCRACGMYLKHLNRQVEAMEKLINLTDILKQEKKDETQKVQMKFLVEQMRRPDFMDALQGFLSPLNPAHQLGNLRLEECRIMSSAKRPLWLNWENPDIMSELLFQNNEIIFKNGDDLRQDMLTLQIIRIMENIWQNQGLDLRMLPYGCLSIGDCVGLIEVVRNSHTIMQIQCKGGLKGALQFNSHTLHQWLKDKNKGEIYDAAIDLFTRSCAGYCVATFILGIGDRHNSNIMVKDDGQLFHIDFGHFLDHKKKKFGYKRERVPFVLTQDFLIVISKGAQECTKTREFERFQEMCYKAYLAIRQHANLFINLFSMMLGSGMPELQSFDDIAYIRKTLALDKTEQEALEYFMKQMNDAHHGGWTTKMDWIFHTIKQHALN
# Chain of PI3K-alpha (P27986 whole entry partner, species assumed): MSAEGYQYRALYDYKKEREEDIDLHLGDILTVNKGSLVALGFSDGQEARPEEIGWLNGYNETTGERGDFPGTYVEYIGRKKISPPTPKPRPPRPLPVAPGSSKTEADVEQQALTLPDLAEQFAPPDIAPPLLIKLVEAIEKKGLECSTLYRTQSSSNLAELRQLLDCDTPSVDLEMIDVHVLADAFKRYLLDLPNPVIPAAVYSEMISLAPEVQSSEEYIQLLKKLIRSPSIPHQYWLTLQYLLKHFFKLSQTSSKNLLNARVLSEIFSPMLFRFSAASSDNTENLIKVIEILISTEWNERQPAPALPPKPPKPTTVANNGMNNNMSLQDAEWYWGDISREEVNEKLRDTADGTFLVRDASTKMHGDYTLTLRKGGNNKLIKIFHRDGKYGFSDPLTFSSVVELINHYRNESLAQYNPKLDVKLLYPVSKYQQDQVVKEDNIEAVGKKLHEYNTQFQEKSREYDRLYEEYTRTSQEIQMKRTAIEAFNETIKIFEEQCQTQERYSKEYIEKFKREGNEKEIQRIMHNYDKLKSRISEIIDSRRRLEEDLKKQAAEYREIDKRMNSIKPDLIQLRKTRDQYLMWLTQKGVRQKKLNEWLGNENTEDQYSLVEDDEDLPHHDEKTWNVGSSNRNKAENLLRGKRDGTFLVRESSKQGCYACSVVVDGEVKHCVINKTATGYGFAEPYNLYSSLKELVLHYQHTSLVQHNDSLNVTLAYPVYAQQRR
# Chain of PI3K-gamma (P48736 whole entry, species assumed, the tested form may be a part): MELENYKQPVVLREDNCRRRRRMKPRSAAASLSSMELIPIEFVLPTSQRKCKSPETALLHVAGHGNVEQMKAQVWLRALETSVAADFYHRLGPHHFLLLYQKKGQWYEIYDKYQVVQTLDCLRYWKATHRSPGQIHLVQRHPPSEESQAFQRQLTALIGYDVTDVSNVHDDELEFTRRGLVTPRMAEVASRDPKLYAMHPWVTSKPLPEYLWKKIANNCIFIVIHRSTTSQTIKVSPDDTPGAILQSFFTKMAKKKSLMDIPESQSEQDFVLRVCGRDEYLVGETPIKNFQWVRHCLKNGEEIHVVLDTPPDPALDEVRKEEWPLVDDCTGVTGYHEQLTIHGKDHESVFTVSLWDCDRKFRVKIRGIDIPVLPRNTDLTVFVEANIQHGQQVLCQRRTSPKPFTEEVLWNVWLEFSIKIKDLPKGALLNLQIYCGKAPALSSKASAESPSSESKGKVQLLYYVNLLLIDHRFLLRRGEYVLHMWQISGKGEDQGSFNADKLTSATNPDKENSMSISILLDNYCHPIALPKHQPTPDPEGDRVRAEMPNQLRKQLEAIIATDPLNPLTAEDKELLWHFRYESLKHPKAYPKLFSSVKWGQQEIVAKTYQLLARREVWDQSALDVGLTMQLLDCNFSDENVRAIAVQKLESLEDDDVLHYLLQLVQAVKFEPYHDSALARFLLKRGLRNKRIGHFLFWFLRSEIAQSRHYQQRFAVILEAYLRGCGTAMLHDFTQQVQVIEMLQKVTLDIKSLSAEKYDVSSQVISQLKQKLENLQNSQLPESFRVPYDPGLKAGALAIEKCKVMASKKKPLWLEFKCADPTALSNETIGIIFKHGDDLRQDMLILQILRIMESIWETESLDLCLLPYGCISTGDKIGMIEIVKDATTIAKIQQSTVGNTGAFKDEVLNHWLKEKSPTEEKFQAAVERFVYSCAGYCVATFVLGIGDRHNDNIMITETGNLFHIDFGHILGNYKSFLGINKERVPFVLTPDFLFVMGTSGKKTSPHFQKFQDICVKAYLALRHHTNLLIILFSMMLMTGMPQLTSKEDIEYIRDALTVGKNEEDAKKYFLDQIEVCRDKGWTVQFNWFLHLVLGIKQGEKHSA
Structure (SMILES),IC50 [1],IC50 [2]
"COc1ccc2c(c1)c(/C=C1\Oc3ccc(NC(=O)NCCCN)cc3C1=O)cn2CCN1CCN(C)CC1 [Compound 566, 1-(3-aminopropyl)-3-[(2Z)-2-({5-methoxy-1-[2-(4-methylpiperazin-1-yl)ethyl]-1Hindol-3-yl}methylene)-3-oxo-2,3-dihydro-1-benzofuran-5-yl]urea]",93.5 nM,7790 nM
"CNC(=O)Nc1ccc2c(c1)C(=O)/C(=C/c1c[nH]c3c(/C=C/CN4CCOCC4)cc(OC)cc13)O2 [Compound 567, 1-[(2Z)-2-({5-methoxy-7-[(1E)-3-morpholin-4-ylprop-1-en-1-yl]-1H-indol-3-yl}methylene)-3-oxo-2,3-dihydro-1-benzofuran-5-yl]-3-methylurea]",164 nM,1550 nM
"COc1ccc2c(c1)c(/C=C1\Oc3ccc(NC(=O)NCCCO)cc3C1=O)cn2CCCN(C)C [Compound 568, 1-[(2Z)-2-({1-[3-(dimethylamino)propyl]-5-methoxy-1H-indol-3-yl}methylene)-3-oxo-2,3-dihydro-1-benzofuran-5-yl]-3-(3-hydroxypropyl)urea]",477 nM,3390 nM
"COc1ccc2c(c1)c(/C=C1\Oc3ccc(NC(=O)NCCCN(C)C)cc3C1=O)cn2CCN1CCN(C)CC1 [Compound 569, 1-[3-(dimethylamino)propyl]-3-[(2Z)-2-({5-methoxy-1-[2-(4-methylpiperazin-1-yl)ethyl]-1H-indol-3-yl}methylene)-3-oxo-2,3-dihydro-1-benzofuran-5-yl]urea]",242 nM,6500 nM
"CNC(=O)Nc1ccc2c(c1)C(=O)/C(=C/c1c[nH]c3c(CN4CCOCC4)cc(OC)cc13)O2 [Compound 570, 1-[(2Z)-2-{[5-methoxy-7-(morpholin-4-ylmethyl)-1H-indol-3-yl]methylene}-3-oxo-2,3-dihydro-1-benzofuran-5-yl]-3-methylurea]",8410 nM,6490 nM
"CNC(=O)Nc1ccc2c(c1)C(=O)/C(=C/c1c[nH]c3c(CN4CCN(C)CC4)cc(OC)cc13)O2 [Compound 571, 1-[(2Z)-2-({5-methoxy-7-[(4-methylpiperazin-1-yl)methyl]-1H-indol-3-yl}methylene)-3-oxo-2,3-dihydro-1-benzofuran-5-yl]-3-methylurea]",612 nM,6440 nM
"CNC(=O)Nc1ccc2c(c1)C(=O)/C(=C/c1cn(C)c3c(CCCN4CCN(C)CC4)cc(OC)cc13)O2 [Compound 572, 1-[(2Z)-2-({5-methoxy-1-methyl-7-[3-(4-methylpiperazin-1-yl)propyl]-1H-indol-3-yl}methylene)-3-oxo-2,3-dihydro-1-benzofuran-5-yl]-3-methylurea]",1660 nM,2320 nM
"CNC(=O)Nc1ccc2c(c1)C(=O)/C(=C/c1c[nH]c3c(/C=C/CN(C)C)cc(OC)cc13)O2 [Compound 573, 1-[(2Z)-2-({7-[(1E)-3-(dimethylamino)prop-1-en-1-yl]-5-methoxy-1H-indol-3-yl}methylene)-3-oxo-2,3-dihydro-1-benzofuran-5-yl]-3-methylurea]",52 nM,1590 nM
"COc1ccc2c(c1)c(/C=C1\Oc3ccc(NC(=O)NCCN(C)C)cc3C1=O)cn2CCN1CCN(C)CC1 [Compound 574, 1-[2-(dimethylamino)ethyl]-3-[(2Z)-2-({5-methoxy-1-[2-(4-methylpiperazin-1-yl)ethyl]-1H-indol-3-yl}methylene)-3-oxo-2,3-dihydro-1-benzofuran-5-yl]urea]",97.5 nM,2990 nM
"CNC(=O)Nc1ccc2c(c1)C(=O)/C(=C/c1c(-c3ccccc3)n(CCN3CCN(C)CC3)c3ccc(OC)cc13)O2 [Compound 575, 1-[(2Z)-2-({5-methoxy-1-[2-(4-methylpiperazin-1-yl)ethyl]-2-phenyl-1H-indol-3-yl}methylene)-3-oxo-2,3-dihydro-1-benzofuran-5-yl]-3-methylurea]",1.25 nM,206 nM
